What all share (format): cell-based
For one assay, the system named is A2780 ovarian carcinoma. In words: In vitro cell proliferation assay (CellTiterGlo), A2780 control line. As to conditions: Homo sapiens, antiproliferative activity, 72 hours exposure, non RET-dependent control cell line. On the procedure:
(§1) In Vitro Cell Proliferation Assay
(§2) To evaluate the antiproliferative activity of a compound of formula (I) the following human cell lines were used: A2780 ovarian carcinoma; TT and MZ-CRC-1 medullary thyroid carcinoma, harboring a mutated RET-C634W and RET-M918T receptor respectively; LC-2/ad human lung adenocarcinoma, harboring the CCDC6-RET fusion protein. Exponentially growing cells were seeded and incubated at 37° C. in a humidified 5% CO2 atmosphere using appropriate medium supplemented with 10% Fetal Bovine Serum. 24 hours following cell plating, scalar doses of the compounds dissolved in 0.1% DMSO were added to the medium and cells were exposed to drugs for either 72 hours (A2780) or 144 hours (TT, MZ-CRC-1 and LC-2/ad), according to their different proliferation rate. At the end of treatment, cell proliferation was determined by an intracellular ATP monitoring system (CellTiterGlo—Promega), following manufacturer's instructions, and using an Envision instrument (PerkinElmer) as reader. Data obtained from compound versus vehicle treated cells were compared using Assay Explorer (Symyx Technologies Inc) software. IC50 values were calculated using sigmoidal interpolation curve fitting.
(§3) In the following Table A the antiproliferative activity of representative compounds of formula (I) on two medullary thyroid carcinoma cell lines expressing the aforementioned mutated forms of RET (TT and MZ-CRC-1) and on one lung adenocarcinoma cell line harboring the aforementioned fusion form of RET (LC-2/ad) is reported. As control, the antiproliferative activity of the same compounds on an unrelated non RET-dependent cell line (A2780) is reported. All these compounds show remarkable activity on RET-driven cellular models with respect to the unrelated ones.
(ATP-based viability assays read luminescence as a measure of living cells.)

Assay [1] concerns TT medullary thyroid carcinoma, harboring a mutated RET-C634W receptor. In words: In vitro cell proliferation assay (CellTiterGlo), TT. As to conditions: Homo sapiens, antiproliferative activity, 144 h exposure. On the procedure: as §1, §2, §3
Assay [2] deals with LC-2/ad human lung adenocarcinoma, harboring the CCDC6-RET fusion protein. Nature of the assay: In vitro cell proliferation assay (CellTiterGlo), LC-2/ad. As to conditions: antiproliferative activity, 144 h exposure. As for the experimental part:
as §1, §2, §3

In assay [3] the test system is MZ-CRC-1 medullary thyroid carcinoma, harboring a mutated RET-M918T receptor. In words: In vitro cell proliferation assay (CellTiterGlo), MZ-CRC-1. As to conditions: Homo sapiens, antiproliferative activity, 144 h exposure. On the procedure: as §1, §2, §3

We go through nine molecules from patent US9682083B2, “Pyrrolo[2,3-D]pyrimidine derivatives, process for their preparation and their use as kinase inhibitors” (NERVIANO MEDICAL SCIENCES S.R.L., priority 2013, dated 2017).

Each structure is given as a SMILES string.

In general, IC50 refers to the concentration that inhibits the measured activity by half.

As for `Cn1cc(C#Cc2cccc(C(=O)NC3CC3)c2)c2c(N)ncnc21` [cmpd 93, 3-[(4-amino-7-methyl-7H-pyrrolo[2,3-d]pyrimidin-5-yl)ethynyl]-N-cyclopropylbenzamide], the IC50 was determined as 4540 nM in the assay on A2780 ovarian carcinoma, 0.035 µM in assay [1], 0.241 µM in assay [2] and 0.264 µM in assay [3].
In the same order, the values of `Nc1ncnc2c1c(C#Cc1cccc(C(=O)NC3CC3)c1)cn2CCO` [cmpd 37, 3-{[4-amino-7-(2-hydroxyethyl)-7H-pyrrolo[2,3-d]pyrimidin-5-yl]ethynyl}-N-cyclopropylbenzamide] are 6790 nM, 0.109 µM, 0.115 µM and 0.271 µM.
In the same order, the values of `Nc1ncnc2c1c(C#Cc1cccc(C(=O)NC3CC3)c1)cn2CC(F)(F)F` [cmpd 36, 3-{[4-amino-7-(2,2,2-trifluoroethyl)-7H-pyrrolo[2,3-d]pyrimidin-5-yl]ethynyl}-N-cyclopropylbenzamide] are 1730 nM, 0.053 µM, 0.058 µM and 0.166 µM.
In the same order, the values of `CC(C)n1cc(C#Cc2cccc(C(=O)NC3CC3)c2)c2c(N)ncnc21` [cmpd 40, 3-{[4-amino-7-(propan-2-yl)-7H-pyrrolo[2,3-d]pyrimidin-5-yl]ethynyl}-N-cyclopropylbenzamide] are 1930 nM, 0.022 µM, 0.033 µM and 0.049 µM.
`CCN1CCN(Cc2ccc(NC(=O)Cc3cccc(C#Cc4c[nH]c5ncnc(N)c45)c3)cc2C(F)(F)F)CC1` [cmpd 12, 2-[3-(4-Amino-7H-pyrrolo[2,3-d]pyrimidin-5-ylethynyl)-phenyl]-N-[4-(4-ethyl-piperazin-1-ylmethyl)-3-trifluoromethyl-phenyl]-acetamide]: the IC50 with A2780 ovarian carcinoma amounted to 695 nM; in assay [1], 0.012 µM; in assay [2], 0.111 µM; in assay [3], 0.222 µM.
The matching figures for `Nc1ncnc2c1c(C#Cc1cc(F)cc(C(=O)NC3CC3)c1)cn2CC(F)(F)F` [cmpd 59, 3-{[4-amino-7-(2,2,2-trifluoroethyl)-7H-pyrrolo[2,3-d]pyrimidin-5-yl]ethynyl}-N-cyclopropyl-5-fluorobenzamide]: 2140 nM, 0.036 µM, 0.048 µM and 0.04 µM.
In the case of `Nc1ncnc2c1c(C#Cc1cc(C(=O)NC3CC3)ccc1F)cn2CC(F)(F)F` [cmpd 54, 3-{[4-amino-7-(2,2,2-trifluoroethyl)-7H-pyrrolo[2,3-d]pyrimidin-5-yl]ethynyl}-N-cyclopropyl-4-fluorobenzamide], the IC50 came out at 3290 nM in the assay with A2780 ovarian carcinoma, 0.02 µM in assay [1], 0.053 µM in assay [2] and 0.068 µM in assay [3].
In the same order, the values of `Nc1ncnc2[nH]cc(C#Cc3cccc(NC(=O)c4cccc(C(F)(F)F)c4)c3)c12` [cmpd 24, N-{3-[(4-amino-7H-pyrrolo[2,3-d]pyrimidin-5-yl)ethynyl]phenyl}-3-(trifluoromethyl)benzamide] are 137 nM, 0.003 µM, 0.066 µM and 0.024 µM.
Turning to `Cc1ccc(C(=O)NC2CC2)cc1C#Cc1cn(CC(F)(F)F)c2ncnc(N)c12` [cmpd 52, 3-{[4-amino-7-(2,2,2-trifluoroethyl)-7H-pyrrolo[2,3-d]pyrimidin-5-yl]ethynyl}-N-cyclopropyl-4-methylbenzamide], the IC50 in the assay with A2780 ovarian carcinoma is 3910 nM; in assay [1], 0.1 µM; in assay [2], 0.107 µM; in assay [3], 0.201 µM.
